These results are taken from US5543406A, “Inhibitors of 5-α-testosterone reductase” (priority 1994, dated 1996).

Some results are limits rather than exact numbers.

Experiment [1] deals with Steroid 5-α-Reductase. Kind of experiment: Steroid 5-α-reductase in vitro assay, rat prostate microsomes. Format: biochemical. The note with it: rat prostatic microsomes; 100 nM [3H]-testosterone, 1 mM NADPH, 60 minutes at 37° C.; read-out: ID50 Rat.
In experiment [2] the target is T1, Steroid 5-α-Reductase (Homo sapiens, UniProt P31213).
T1 construct: microsomes derived from prostate tissue of benign prostatic hypertrophy (BPH) patients; from tissue; host or cells: prostate tissue of BPH patients, microsomes
T1 sequence (P31213 1-254): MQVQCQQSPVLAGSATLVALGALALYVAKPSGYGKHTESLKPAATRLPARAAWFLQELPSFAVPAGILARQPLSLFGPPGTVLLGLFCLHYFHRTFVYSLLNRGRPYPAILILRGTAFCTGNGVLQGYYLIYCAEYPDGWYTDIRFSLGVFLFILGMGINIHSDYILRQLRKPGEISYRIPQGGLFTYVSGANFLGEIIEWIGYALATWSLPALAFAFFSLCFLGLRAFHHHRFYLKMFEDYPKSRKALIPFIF
The experiment is described as follows: Steroid 5-α-reductase in vitro assay, human prostate microsomes (BPH patients). It counts as biochemical. The conditions noted are these: human prostatic microsomes; 100 nM [3H]-testosterone, 1 mM NADPH, 60 minutes at 37° C.

With `C[C@]12CC[C@H]3[C@@H](CNC4=CC(=O)CC[C@@]43C)[C@@H]1CC[C@@H]2C(=O)NC1CC2CCC1C2` (stereo partly drawn) [Compound 61, 17β-N-endo-2-Norbornylcarbamoyl-6-azaandrost-4-en-3-one], the IC50 at Steroid 5-α-Reductase [1] and at Steroid 5-α-Reductase [2] was 10 to 100 nM in each case.
Turning to `C[C@]12CC[C@H]3[C@@H](CNC4=CC(=O)CC[C@@]43C)[C@@H]1CC[C@@H]2C(=O)N1CCOCC1` [Compound 23, 17β-N-Morpholinocarbamoyl-6-azaandrost-4-en-3-one], the results for the IC50 on Steroid 5-α-Reductase [1] and against Steroid 5-α-Reductase [2] were 100 to 1000 nM and 10 to 100 nM, respectively.
The corresponding values for `CCN(CC)C(=O)[C@H]1CC[C@H]2[C@@H]3CN(C)C4=CC(=O)C=C[C@]4(C)[C@H]3CC[C@]12C` [Compound 27, 17β-N,N-Diethylcarbamoyl-6-methyl-6-azaandrost-1,4-dien-3-one] are 100 to 1000 nM and 10 to 100 nM.
For `C[C@]12CC[C@H]3[C@@H](CNC4=CC(=O)CC[C@@]43C)[C@@H]1CC[C@@H]2C(=O)N(c1ccccc1)c1ccccc1` [Compound 59, 17β-N-Diphenylcarbamoyl-6-azaandrost-4-en-3-one] the same measures were 100 to 1000 nM and under 10 nM.
For `CC(C)N(C(=O)[C@H]1CC[C@H]2[C@@H]3CNC4=CC(=O)CC[C@]4(C)[C@H]3CC[C@]12C)C(C)C` [Compound 17, 17β-N,N-Diisopropylcarbamoyl-6-azaandrost-4-en-3-one] the same measures were 100 to 1000 nM and under 10 nM.
In the case of `CCN(CC)C(=O)/C=C/[C@H]1CC[C@H]2[C@@H]3CNC4=CC(=O)CC[C@]4(C)[C@H]3CC[C@]12C` [Compound 76, 17β-1-(E)-Acrylyl(N,N-diethyl)amide-6-azaandrost-4-en-3-one], the IC50 at Steroid 5-α-Reductase [1] and at Steroid 5-α-Reductase [2] was 10 to 100 nM in each case.
For `C[C@]12CC[C@H]3[C@@H](CNC4=CC(=O)CC[C@@]43C)[C@@H]1CC[C@@H]2C(=O)OC1C2CC3CC(C2)CC1C3` (stereo partly drawn) [Compound 73, 17β-Carbo-(2-adamantyl)-oxy-6-azaandrost-4-en-3-one], the IC50 on Steroid 5-α-Reductase [1] and against Steroid 5-α-Reductase [2] was under 10 nM in each case.
With `C[C@]12CC[C@H]3[C@@H](CNC4=C(Br)C(=O)CC[C@@]43C)[C@@H]1CC[C@@H]2C(=O)NC12CC3CC(CC(C3)C1)C2` [Compound 55, 17β-N-1-Adamantylcarbamoyl-6-azaandrost-4-bromo-4-en-3-one], the IC50 on Steroid 5-α-Reductase [1] and on Steroid 5-α-Reductase [2] was under 10 nM in each case.
Consider `CN1C[C@H]2[C@@H]3CC[C@H](C(=O)NC(C)(C)C)[C@@]3(C)CC[C@@H]2[C@@]2(C)C=CC(=O)C=C12` [Compound 29, 17β-N-t-Butylcarbamoyl-6-methyl-6-azaandrost-1,4-dien-3-one], for which the IC50 on Steroid 5-α-Reductase [1] was 100 to 1000 nM; at Steroid 5-α-Reductase [2], 10 to 100 nM.
The corresponding values for `CC1=C2NC[C@H]3[C@@H]4CC[C@H](C(=O)NC(C)(C)C)[C@@]4(C)CC[C@@H]3[C@@]2(C)CCC1=O` [Compound 62, 17β-N-t-Butylcarbamoyl-6-azaandrost-4-methyl-4-en-3-one] are 10 to 100 nM and 10 to 100 nM.
For `CN1C[C@H]2[C@@H]3CC[C@H](C(=O)NC45CC6CC(CC(C6)C4)C5)[C@@]3(C)CC[C@@H]2[C@@]2(C)CCC(=O)C=C12` [Compound 20, 17β-N-1-Adamantylcarbamoyl-6-methyl-6-azaandrost-4-en-3-one] the same measures were under 10 nM and under 10 nM.
In the case of `CCN(CC)C(=O)[C@H]1CC[C@H]2[C@@H]3CNC4=CC(=O)C=C[C@]4(C)[C@H]3CC[C@]12C` [Compound 6, 17β-N,N-Diethylcarbamoyl-6-azaandrost-1,4-dien-3-one], the IC50 on Steroid 5-α-Reductase [1] fell in the range of 100 to 1000 nM; against Steroid 5-α-Reductase [2], 10 to 100 nM.
The corresponding values for `CC(C)CC(=O)[C@H]1CC[C@H]2[C@@H]3CNC4=CC(=O)CC[C@]4(C)[C@H]3CC[C@]12C` [Compound 5, 17β-(1-Oxo-3-methylbutyl)-6-azaandrost-4-en-3-one] are 10 to 100 nM and under 10 nM.
For `CC1=C2NC[C@H]3[C@@H]4CC[C@H](C(=O)CC(C)C)[C@@]4(C)CC[C@@H]3[C@@]2(C)CCC1=O` [Compound 64, 17β-(1-Oxo-3-methylbutyl)-6-azaandrost-4-methyl-4-en-3-one] the same measures were 10 to 100 nM and under 10 nM.
For `CCN(CC)C(=O)[C@H]1CC[C@H]2[C@@H]3CNC4=CC(=O)CC[C@]4(C)[C@H]3CC[C@]12C` [Compound 1, 17β-N,N-Diethylcarbamoyl-6-azaandrost-4-en-3-one], the IC50 was 10 to 100 nM on Steroid 5-α-Reductase [1] and under 10 nM against Steroid 5-α-Reductase [2].
Take `C[C@]12CC[C@H]3[C@@H](CNC4=CC(=O)CC[C@@]43C)[C@@H]1CC[C@@H]2C(=O)OC12CC3CC(CC(C3)C1)C2` [Compound 74, 17β-Carbo-(1-adamantyl)-oxy-6-azaandrost-4-en-3-one]: the IC50 at Steroid 5-α-Reductase [1] was 10 to 100 nM; at Steroid 5-α-Reductase [2], under 10 nM.
For `C[C@]12CC[C@H]3[C@@H](CNC4=CC(=O)CC[C@@]43C)[C@@H]1CC[C@@H]2C(=O)NC(c1ccccc1)c1ccccc1` [Compound 58, 17β-N-Diphenylmethylcarbamoyl-6-azaandrost-4-en-3-one] the same measures were 10 to 100 nM and under 10 nM.
The corresponding values for `CC(C)N(C(=O)[C@H]1CC[C@H]2[C@@H]3CN(C)C4=CC(=O)CC[C@]4(C)[C@H]3CC[C@]12C)C(C)C` [Compound 18, 17β-N,N-Diisopropylcarbamoyl-6-methyl-6-azaandrost-4-en-3-one] are 10 to 100 nM and under 10 nM.
For `CC1=C2N(C)C[C@H]3[C@@H]4CC[C@H](C(=O)NC56CC7CC(CC(C7)C5)C6)[C@@]4(C)CC[C@@H]3[C@@]2(C)CCC1=O` [Compound 57, 17β-N-1-Adamantylcarbamoyl-6-methyl-6-azaandrost-4-methyl-4-en-3-one] the same measures were under 10 nM and 10 to 100 nM.
For `CCN(CC)C(=O)[C@H]1CC[C@H]2[C@@H]3CNC4=CC(=O)C(C)C[C@]4(C)[C@H]3CC[C@]12C` (stereo partly drawn) [Compound 75, 17β-N,N-Diethylcarbamoyl-6-azaandrost-2-(α,β)-methyl-4-en-3-one], the IC50 on Steroid 5-α-Reductase [1] lay within 100 to 1000 nM; against Steroid 5-α-Reductase [2], 10 to 100 nM.
For `C[C@]12CC[C@H]3[C@@H](CNC4=CC(=O)CC[C@@]43C)[C@@H]1CC[C@@H]2C(=O)NCC1CC2CCC1C2` (stereo partly drawn) [Compound 60, 17β-N-exo-2-Norbornylmethylcarbamoyl-6-azaandrost-4-en-3-one] the same measures were under 10 nM and 10 to 100 nM.
For `CCN(CC)C(=O)[C@H]1CC[C@H]2[C@@H]3CNC4=C(Br)C(=O)CC[C@]4(C)[C@H]3CC[C@]12C` [Compound 9, 17β-N,N-Diethylcarbamoyl-6-azaandrost-4-bromo-4-en-3-one] the same measures were 100 to 1000 nM and under 10 nM.
For the compound `CC(C)(C)NC(=O)[C@H]1CC[C@H]2[C@@H]3CNC4=CC(=O)C=C[C@]4(C)[C@H]3CC[C@]12C` [Compound 28, 17β-N-t-Butylcarbamoyl-6-azaandrost-1,4-dien-3-one], the figures for the IC50 at Steroid 5-α-Reductase [1] and at Steroid 5-α-Reductase [2] were 100 to 1000 nM and 10 to 100 nM, respectively.
Regarding `CN1C[C@H]2[C@@H]3CC[C@H](C(=O)NC45CC6CC(CC(C6)C4)C5)[C@@]3(C)CC[C@@H]2[C@@]2(C)C=CC(=O)C=C12` [Compound 31, 17β-N-1-Adamantylcarbamoyl-6-methyl-6-azaandrost-1,4-dien-3-one], the IC50 at Steroid 5-α-Reductase [1] was 10 to 100 nM; at Steroid 5-α-Reductase [2], under 10 nM.
